# Experimental data reported in patent US9346798B2, “Dihydrobenzoxazine and tetrahydroquinoxaline sodium channel inhibitors” (AMGEN INC., priority 2012, dated 2016).
# Assays:
# Format in all cases: cell-based
# Nav 1.7 [1] = target: T1, Nav 1.7 (Homo sapiens (Human), UniProt Q15858); assay: Nav 1.7 in vitro assay, IonWorks Quattro (IWQ) population patch-clamp; conditions: HEK 293 cells stably transfected with Nav 1.7; 26th pulse to -20 mV
# Nav 1.5 = Nav 1.5 (Homo sapiens (Human), UniProt Q14524); assay: Nav 1.5 in vitro assay, IonWorks Quattro (IWQ) population patch-clamp; conditions: HEK 293 cells stably transfected with Nav 1.5; 26th pulse to -20 mV
# Nav 1.7 [2] = target: T1, Nav 1.7; assay: Nav 1.7 in vitro PX assay, PatchXpress whole cell voltage clamp; conditions: HEK 293 cells stably transfected with human Nav1.7; partially inactivated state (20 to 50% inactivation)
# Method in brief: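 HEK293 cells stably expressing human Nav1.7, whole-cell voltage clamp at a holding potential giving 20–50% inactivation; currents elicited by 20 msec pulses to −10 mV at 0.1 Hz.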
# T1 sequence (Q15858 whole entry): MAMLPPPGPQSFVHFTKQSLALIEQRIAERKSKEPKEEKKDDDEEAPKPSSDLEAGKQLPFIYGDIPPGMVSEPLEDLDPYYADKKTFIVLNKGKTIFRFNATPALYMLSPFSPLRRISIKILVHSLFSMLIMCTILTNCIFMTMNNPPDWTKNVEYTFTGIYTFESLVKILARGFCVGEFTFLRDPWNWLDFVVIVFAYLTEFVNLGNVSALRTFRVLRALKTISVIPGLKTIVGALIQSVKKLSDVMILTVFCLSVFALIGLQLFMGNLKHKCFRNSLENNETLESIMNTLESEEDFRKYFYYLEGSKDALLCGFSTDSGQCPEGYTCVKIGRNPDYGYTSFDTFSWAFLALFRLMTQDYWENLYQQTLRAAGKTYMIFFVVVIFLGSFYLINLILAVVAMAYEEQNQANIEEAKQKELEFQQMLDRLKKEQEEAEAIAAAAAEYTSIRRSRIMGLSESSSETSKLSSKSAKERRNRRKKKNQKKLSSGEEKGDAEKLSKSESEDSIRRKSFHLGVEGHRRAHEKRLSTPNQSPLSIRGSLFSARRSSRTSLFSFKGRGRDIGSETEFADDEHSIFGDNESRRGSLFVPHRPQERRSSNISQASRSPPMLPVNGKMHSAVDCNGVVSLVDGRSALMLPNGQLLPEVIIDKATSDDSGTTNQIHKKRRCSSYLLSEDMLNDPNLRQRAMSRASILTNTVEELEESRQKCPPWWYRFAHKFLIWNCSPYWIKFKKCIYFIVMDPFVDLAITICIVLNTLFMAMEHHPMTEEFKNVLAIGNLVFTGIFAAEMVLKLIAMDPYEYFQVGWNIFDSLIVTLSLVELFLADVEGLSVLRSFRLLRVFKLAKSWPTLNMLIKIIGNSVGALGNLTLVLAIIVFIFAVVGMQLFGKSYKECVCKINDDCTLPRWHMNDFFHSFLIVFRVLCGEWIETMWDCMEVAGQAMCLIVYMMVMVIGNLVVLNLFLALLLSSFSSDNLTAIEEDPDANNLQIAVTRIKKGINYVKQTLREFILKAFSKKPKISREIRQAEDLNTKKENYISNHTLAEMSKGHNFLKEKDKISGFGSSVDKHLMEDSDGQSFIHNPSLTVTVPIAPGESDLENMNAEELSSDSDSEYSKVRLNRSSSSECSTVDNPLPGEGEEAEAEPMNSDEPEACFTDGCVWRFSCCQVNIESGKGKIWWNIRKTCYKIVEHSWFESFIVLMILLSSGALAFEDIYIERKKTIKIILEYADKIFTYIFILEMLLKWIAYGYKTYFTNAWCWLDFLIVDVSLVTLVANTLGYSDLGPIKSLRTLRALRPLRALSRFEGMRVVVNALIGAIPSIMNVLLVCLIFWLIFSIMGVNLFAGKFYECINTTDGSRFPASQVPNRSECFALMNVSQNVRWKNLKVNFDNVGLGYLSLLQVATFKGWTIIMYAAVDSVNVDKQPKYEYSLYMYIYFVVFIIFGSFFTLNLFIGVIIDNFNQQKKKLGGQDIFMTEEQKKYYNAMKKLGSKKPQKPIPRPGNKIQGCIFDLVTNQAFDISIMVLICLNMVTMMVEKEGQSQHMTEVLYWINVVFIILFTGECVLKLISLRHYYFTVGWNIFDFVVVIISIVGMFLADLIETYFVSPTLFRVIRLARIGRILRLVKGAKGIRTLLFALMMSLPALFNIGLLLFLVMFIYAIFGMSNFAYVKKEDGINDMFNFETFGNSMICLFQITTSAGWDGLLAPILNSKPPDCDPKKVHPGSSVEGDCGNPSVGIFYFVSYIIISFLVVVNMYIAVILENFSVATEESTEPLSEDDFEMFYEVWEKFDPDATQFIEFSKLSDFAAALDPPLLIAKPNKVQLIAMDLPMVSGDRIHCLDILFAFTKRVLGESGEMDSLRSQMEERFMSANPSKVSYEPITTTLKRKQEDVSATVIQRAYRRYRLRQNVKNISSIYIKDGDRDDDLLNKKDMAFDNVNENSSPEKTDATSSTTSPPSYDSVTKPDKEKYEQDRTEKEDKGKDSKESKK
# Chain of Nav 1.5 (Q14524 whole entry): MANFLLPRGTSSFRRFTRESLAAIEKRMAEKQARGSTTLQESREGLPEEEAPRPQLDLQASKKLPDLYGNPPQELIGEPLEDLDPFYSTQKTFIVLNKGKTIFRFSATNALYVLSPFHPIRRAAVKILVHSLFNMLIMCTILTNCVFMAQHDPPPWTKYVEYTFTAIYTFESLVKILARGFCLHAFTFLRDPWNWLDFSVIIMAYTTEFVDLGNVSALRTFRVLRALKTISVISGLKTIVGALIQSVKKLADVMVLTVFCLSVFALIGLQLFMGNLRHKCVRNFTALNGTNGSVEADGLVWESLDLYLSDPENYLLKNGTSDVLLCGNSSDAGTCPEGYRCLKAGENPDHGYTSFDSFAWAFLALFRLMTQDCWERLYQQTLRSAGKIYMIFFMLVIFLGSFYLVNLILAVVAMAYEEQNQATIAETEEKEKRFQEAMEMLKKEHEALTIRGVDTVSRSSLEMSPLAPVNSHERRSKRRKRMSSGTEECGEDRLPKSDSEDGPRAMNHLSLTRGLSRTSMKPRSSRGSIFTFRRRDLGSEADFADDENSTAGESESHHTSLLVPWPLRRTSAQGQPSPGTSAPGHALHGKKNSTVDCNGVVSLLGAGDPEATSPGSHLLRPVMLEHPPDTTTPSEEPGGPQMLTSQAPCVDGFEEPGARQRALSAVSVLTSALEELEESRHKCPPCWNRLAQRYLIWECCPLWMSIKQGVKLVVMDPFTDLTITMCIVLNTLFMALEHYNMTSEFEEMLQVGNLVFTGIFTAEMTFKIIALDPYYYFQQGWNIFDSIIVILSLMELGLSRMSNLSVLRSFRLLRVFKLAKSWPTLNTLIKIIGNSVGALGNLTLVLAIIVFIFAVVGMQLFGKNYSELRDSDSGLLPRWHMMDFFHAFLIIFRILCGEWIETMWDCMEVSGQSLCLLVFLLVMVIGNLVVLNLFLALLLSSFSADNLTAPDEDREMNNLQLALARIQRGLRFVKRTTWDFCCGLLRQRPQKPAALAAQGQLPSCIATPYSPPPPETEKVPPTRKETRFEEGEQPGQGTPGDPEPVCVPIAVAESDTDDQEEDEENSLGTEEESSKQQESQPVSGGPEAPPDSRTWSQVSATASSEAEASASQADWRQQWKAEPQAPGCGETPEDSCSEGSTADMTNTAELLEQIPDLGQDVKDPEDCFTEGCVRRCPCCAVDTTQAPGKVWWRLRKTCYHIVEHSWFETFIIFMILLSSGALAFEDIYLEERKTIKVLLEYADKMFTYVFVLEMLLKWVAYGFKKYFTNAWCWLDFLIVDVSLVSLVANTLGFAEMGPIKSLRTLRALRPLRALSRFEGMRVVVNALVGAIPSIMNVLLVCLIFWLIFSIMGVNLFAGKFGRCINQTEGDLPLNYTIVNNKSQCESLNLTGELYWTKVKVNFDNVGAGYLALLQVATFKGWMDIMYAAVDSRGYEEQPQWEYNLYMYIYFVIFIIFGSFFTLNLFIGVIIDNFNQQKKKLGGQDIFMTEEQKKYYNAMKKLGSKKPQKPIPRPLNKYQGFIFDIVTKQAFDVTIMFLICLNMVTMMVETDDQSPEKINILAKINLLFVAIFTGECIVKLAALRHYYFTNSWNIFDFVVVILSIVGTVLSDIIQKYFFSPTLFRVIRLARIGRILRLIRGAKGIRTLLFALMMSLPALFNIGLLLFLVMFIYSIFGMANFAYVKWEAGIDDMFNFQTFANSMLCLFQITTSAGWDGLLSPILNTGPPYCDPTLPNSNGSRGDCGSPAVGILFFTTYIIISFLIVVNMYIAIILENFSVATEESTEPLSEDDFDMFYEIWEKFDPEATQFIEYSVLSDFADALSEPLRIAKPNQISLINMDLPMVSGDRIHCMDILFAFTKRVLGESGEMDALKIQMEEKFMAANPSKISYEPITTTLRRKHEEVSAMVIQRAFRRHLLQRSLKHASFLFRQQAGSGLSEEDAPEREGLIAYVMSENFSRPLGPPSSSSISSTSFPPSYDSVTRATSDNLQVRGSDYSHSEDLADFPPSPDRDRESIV
IC50 (Nav 1.7 [1]),IC50 (Nav 1.7 [2]),Compound,IC50 (Nav 1.5)
233 nM,1100 nM,"Cc1cc(Cl)ccc1N1CCOc2cc(S(=O)(=O)Nc3nccs3)ccc21 [Example 195, 4-(4-Chloro-2-Methylphenyl)-N-(Thiazol-2-Yl)-3,4-Dihydro-2H-Benzo[B][1,4]Oxazine-7-Sulfonamide]",> 10000 nM
14 nM,68.7 nM,"CN1CC=C(c2cc(C(F)(F)F)ccc2N2CCOc3cc(S(=O)(=O)Nc4nccs4)ccc32)CC1 [Example 44, 4-(2-(1-Methyl-1,2,3,6-Tetrahydropyridin-4-Yl)-4-(Trifluoromethyl)Phenyl)-N-(Thiazol-2-Yl)-3,4-Dihydro-2H-Benzo[B][1,4]Oxazine-7-Sulfonamide]",3590 nM
